Source: patent publication US20210283099A1, “CDC7 KINASE INHIBITORS AND USES THEREOF” (SLOAN-KETTERING INSTITUTE FOR CANCER RESEARCH, priority 2010, published 2021)
Where two headings read alike, the source gives them in different places.

What was measured:
A549 = assay: Cytotoxicity assay (Alamar blue); assay type: cell-based; details: Human lung adenocarcinoma, G12S KRAS mutation
Procedure: (§1) FIGS. 16A-16B. Granaticin A and Granaticin B inhibit multiple tumor types: The indicated cell lines and primary patient samples were tested against the compounds listed in standard cytotoxicity assays (12 point dose response using Alamar blue reduction as an indicator of cell viability). Assays were done in triplicate and IC50 determinations were run in 12-point serial dilutions from […] to 5 nM. […] These include ras and EGFR gatekeeper mutation containing cell lines in addition to p53 mutant cell lines and other known chemotherapy resistant cell lines. Specifically, this included multi-drug resistance phenotype (MDR-overexpressing) cell lines from multiple hematologic and solid tumor cell lines. Table 1 highlights a series of primary patient leukemia samples-both acute and chronic and treatment naïve and refractory tested against granaticins A and B and Derivatives 1 and 2 (see Examples).

CWR22 = assay: Cytotoxicity assay (Alamar blue); assay type: cell-based; details: human prostate carcinoma
Procedure: as §1

DOGO = assay: Cytotoxicity assay (Alamar blue); assay type: cell-based; details: Homo sapiens, Patient sample of CLL with trisomy of chromosome 12 and unmutated Ig heavy chain locus
Procedure: as §1

FUUR1 = assay: Cytotoxicity assay (Alamar blue); assay type: cell-based; details: human renal cell carcinoma with the reciprocal ASPL-TFE3 fusion transcript
Procedure: as §1

GLHU = assay: Cytotoxicity assay (Alamar blue); assay type: cell-based; details: Homo sapiens, Patient sample of Chronic Myelogenous leukemia
Procedure: as §1

H2444 = assay: Cytotoxicity assay (Alamar blue); assay type: cell-based; details: NCI-H2444, human lung adenocarcinoma, G12V KRAS mutation
Procedure: as §1

H3255 = assay: Cytotoxicity assay (Alamar blue); assay type: cell-based; details: NCI-H3255, Human lung adenocarcinoma, L858R EGFR mutation, wild-type KRAS, wild-type P53
Procedure: as §1

HCC4011 = assay: Cytotoxicity assay (Alamar blue); assay type: cell-based; details: Human lung adenocarcinoma, L858R EGFR mutation, wild-type KRAS
Procedure: as §1

HL60 RV = assay: Cytotoxicity assay (Alamar blue); assay type: cell-based; details: Homo sapiens, HL-60, MDR variant of HL60 selected with vincristine
Procedure: as §1

JABR = assay: Cytotoxicity assay (Alamar blue); assay type: cell-based; details: Homo sapiens, Patient sample of relpased/refractory AML with normal cytogenetics and Flt-3 ITD
Procedure: as §1

JAMC = assay: Cytotoxicity assay (Alamar blue); assay type: cell-based; details: Homo sapiens, Patient sample of AML with inversion of chromosome 16
Procedure: as §1

JNDSRCT1 = assay: Cytotoxicity assay (Alamar blue); assay type: cell-based; details: Human desmoplastic small round cell tumor cell line
Procedure: as §1

JOQU = assay: Cytotoxicity assay (Alamar blue); assay type: cell-based; details: Homo sapiens, Patient sample of relapsed/refractory AML with trisomy of chromosome #8 and Flt-3 ITD
Procedure: as §1

K562 = assay: Cytotoxicity assay (Alamar blue); assay type: cell-based; details: Human Chronic Myelogenous leukemia transformed to acute erythroleukemia
Procedure: as §1

MAWI B = assay: Cytotoxicity assay (Alamar blue); assay type: cell-based; details: Homo sapiens, Patient sample of secondary chronic myelogenous leukemia
Procedure: as §1

MCF-10A = assay: Cytotoxicity assay (Alamar blue); assay type: cell-based; details: human normal mammary epithelium
Procedure: as §1

MDA-MB -231 = assay: Cytotoxicity assay (Alamar blue); assay type: cell-based; details: human metastatic breast adenocarcinoma, estrogen, progesterone, and HER2/NEU receptor negative
Procedure: as §1

MEG01 = assay: Cytotoxicity assay (Alamar blue); assay type: cell-based; details: MEG-01, Human CML transformed to acute Megakaryoblastic leukemia
Procedure: as §1

MOLT3 = assay: Cytotoxicity assay (Alamar blue); assay type: cell-based; details: MOLT-3, Human Acute Lympholastic T-cell Leukemia
Procedure: as §1

NCEB1 = assay: Cytotoxicity assay (Alamar blue); assay type: cell-based; details: Human Mantle Cell Lymphoma
Procedure: as §1

OVCAR3 = assay: Cytotoxicity assay (Alamar blue); assay type: cell-based; details: OVCAR-3, human ovarian adenocarcinoma
Procedure: as §1

PC9 = assay: Cytotoxicity assay (Alamar blue); assay type: cell-based; details: PC-9, Human lung adenocarcinoma, DelE746-A750 EGFR mutation
Procedure: as §1

RORI = assay: Cytotoxicity assay (Alamar blue); assay type: cell-based; details: Homo sapiens, Patient sample of relapsed/refractory AML with trisomy of chromosome #8
Procedure: as §1

SOPA = assay: Cytotoxicity assay (Alamar blue); assay type: cell-based; details: Homo sapiens, Patient sample of secondary AML with chromsome 11q23 abnormality
Procedure: as §1

STGL = assay: Cytotoxicity assay (Alamar blue); assay type: cell-based; details: Homo sapiens, Patient sample of refractory AML with multiple chromosomal abnormalities (refractory to allogeneic BMT)
Procedure: as §1

TC71 = assay: Cytotoxicity assay (Alamar blue); assay type: cell-based; details: TC-71, Human Ewing's sarcoma
Procedure: as §1

Y79 = assay: Cytotoxicity assay (Alamar blue); assay type: cell-based; details: Human retinoblastoma
Procedure: as §1

HeLa S3 cells = assay: Double thymidine block and release, FACS and morphology; assay type: cell-based, human; details: for morphologic appearance: 15 hours release from double thymidine block; for cell cycle progression by FACS: cells synchronized at the G1/S transition and released into compound
Procedure: FIG. 9. […] Synchronized cells (time zero) were released into media containing granaticin A for the indicated times and standard FACS analysis performed looking at DNA content.
FIG. 11. Cell cycle arrest in Hela S3 cells: Morphologic appearance of control (DMSO), granaticin A, and granaticin B treated HeLa S3 cells following 15 hours release from double thymidine block. […] The corresponding FACS profiles are shown.

[1] = system: RPE (retinal pigment epithelial cells); assay: FACS and caspase-3 assay in normal diploid cells; assay type: cell-based
Procedure: FIGS. 23A-23C. Granaticin A and B are not cytotoxic to normal diploid cells: FIGS. 23A-23B: Granaticin B exposure is not cytotoxic to normal diploid cells. Either HeLa or RPE (retinal pigment epithelial cells, a normal human diploid cell line) cells were incubated in carrier control (DMSO) or granaticin B (1 microM) for 24 hours and samples were subjected to standard FACS analysis with the x-axis indicating DNA content (FIG. 23A). […] FIG. 23C: Granaticin A exposure is not cytotoxic to normal diploid cells. Either HeLa or RPE (retinal pigment epithelial cells, a normal diploid cell line) cells were incubated in carrier control (DMSO) or granaticin A for 24 hours and samples were subjected to standard FACS analysis with FL2 indicating DNA content.

**Q.** Which results are given for `CC1OC2CC(O)C1(O)c1c(O)c3c(c(O)c12)C(=O)C1=C(C3=O)[C@H](C)O[C@H]2CC(=O)O[C@@H]12` (stereo partly shown) [Granaticin A, granaticin A]?
**A.** IC50 (A549): 280 nM; IC50 (CWR22): 90 nM; IC50 (DOGO): 150 nM; IC50 (FUUR1): 480 nM; IC50 (GLHU): 260 nM; IC50 (H2444): 310 nM; IC50 (H3255): 210 nM; IC50 (HCC4011): 140 nM; IC50 (HL60 RV): 90 nM; IC50 (JABR): 210 nM; IC50 (JAMC): 60 nM; IC50 (JNDSRCT1): 70 nM; IC50 (JOQU): 770 nM; IC50 (K562): 120 nM; IC50 (MAWI B): 420 nM; IC50 (MCF-10A): 260 nM; IC50 (MDA-MB -231): 470 nM; IC50 (MEG01): 170 nM; IC50 (MOLT3): 30 nM; IC50 (NCEB1): 330 nM; IC50 (OVCAR3): 210 nM; IC50 (PC9): 300 nM; IC50 (RORI): 1200 nM; IC50 (SOPA): 100 nM; IC50 (STGL): 1880 nM; IC50 (TC71): 150 nM; IC50 (Y79): 60 nM; morphologic appearance (HeLa S3 cells): arrested with flattened morphology and peri-nuclear vacuolization; cell cycle progression by FACS (HeLa S3 cells): S phase progression is also blocked; cell cycle profile [1]: unaffected

**Q.** `CC1OC2CC(O[C@H]3CC[C@H](O)[C@H](C)O3)C1(O)c1c(O)c3c(c(O)c12)C(=O)C1=C(C3=O)[C@H](C)O[C@H]2CC(=O)O[C@@H]12` (stereo partly shown) [Granaticin B, granaticin B] was tested. Which IC50 (A549) did it give?
**A.** 90 nM

**Q.** And the IC50 (CWR22)?
**A.** 40 nM

**Q.** And the IC50 (DOGO)?
**A.** 70 nM

**Q.** And the IC50 (FUUR1)?
**A.** 340 nM

**Q.** What about the IC50 (GLHU) of the same molecule?
**A.** 80 nM

**Q.** What about the IC50 (H2444) of the same molecule?
**A.** 30 nM

**Q.** And the IC50 (H3255)?
**A.** 70 nM

**Q.** And the IC50 (HCC4011)?
**A.** 50 nM

**Q.** What about the IC50 (HL60 RV) of the same molecule?
**A.** 70 nM

**Q.** What about the IC50 (JABR) of the same molecule?
**A.** 50 nM

**Q.** What about the IC50 (JAMC) of the same molecule?
**A.** 40 nM

**Q.** What about the IC50 (JNDSRCT1) of the same molecule?
**A.** 50 nM

**Q.** What about the IC50 (JOQU) of the same molecule?
**A.** 140 nM

**Q.** And the IC50 (K562)?
**A.** 80 nM

**Q.** What about the IC50 (MAWI B) of the same molecule?
**A.** 160 nM

**Q.** And the IC50 (MCF-10A)?
**A.** 240 nM

**Q.** And the IC50 (MDA-MB -231)?
**A.** 290 nM

**Q.** What about the IC50 (MEG01) of the same molecule?
**A.** 80 nM

**Q.** What about the IC50 (MOLT3) of the same molecule?
**A.** 10 nM

**Q.** What about the IC50 (NCEB1) of the same molecule?
**A.** 260 nM

**Q.** And the IC50 (OVCAR3)?
**A.** 110 nM

**Q.** And the IC50 (PC9)?
**A.** 70 nM

**Q.** And the IC50 (RORI)?
**A.** 100 nM

**Q.** And the IC50 (SOPA)?
**A.** 90 nM

**Q.** What about the IC50 (STGL) of the same molecule?
**A.** 620 nM

**Q.** What about the IC50 (TC71) of the same molecule?
**A.** 90 nM

**Q.** What about the IC50 (Y79) of the same molecule?
**A.** 50 nM

**Q.** And the morphologic appearance (HeLa S3 cells)?
**A.** nuclear blebbing and cell death

**Q.** What about the “cell cycle progression by FACS” value (HeLa S3 cells) of the same molecule?
**A.** Induces Cell Cycle Arrest

**Q.** What about the caspase-3 activation ([1]; RPE cells, 1 microM) of the same molecule?
**A.** does not result in caspase-3 activation

**Q.** And the cell cycle profile ([1]; RPE cells, 24 hours (granaticin B 1 microM))?
**A.** essentially unaffected
